In US6753424B1, “Conjugates of DNA interacting groups with steroid hormones for use as nucleic acid transfection agents” (priority 1998, dated 2004):

Assays:
HUH-7 cells = test: Transfection enhancement, CMV-LacZ reporter, HUH-7 cells; type: cell-based, human
Procedure: Conditions: HUH-7 cells are human hepatoma cells that contain substantial amounts of glucocorticoid receptor. The cells are transfected with an expression vector that is constitutively expressing the reporter gene LacZ (CMV-LacZ). Transfection conditions and analysis of LacZ reporter are the same as described in Example 7 legend. Transfection is performed O/N and after rinsing of the precipitate the cells are further incubated for 24 hours. LacZ levels are determined from cell extracts with a chemiluminescence LacZ enzyme assay (Galactolight plus, Tropix). The relative luminescence from each extract is given. Each value represents an individual extract. “Induction”: relative reporter gene activity (values divided by value of assay in lane 9, true negative control for DNA liganding). rel/RLU=(RLU:protein)×1000; net=rel/RLU−600 (600=rel/RLU value approximately corresponding to rel/RLU value of mock transfection).

[1] = test system: CV-1 cells reconstituted with exogenous GR; test: Transfection enhancement, CMV-LacZ reporter, CV-1 cells reconstituted with exogenous GR; type: cell-based, monkey; details: CV-1 cells that have not been supplemented with GR; data not shown
3Y1 cells = test: Transfection enhancement, CMV-LacZ reporter, CaPO4 transfection of 3Y1 cells; type: cell-based, rat; details: for light units (relative luminescence, LacZ): 5 μg reporter, 3Y1
Procedure: Conditions: 3Y1 cells are transfected with an expression vector that is constitutively expressing the reporter gene LacZ (CMV-LacZ). Transfection conditions are identical throughout the various samples (total 10-12 μq DNA for 4 cm dishes). In some samples the DNA used for the transfection cocktail is pre-incubated with various conjugates at the given concentrations. The concentrations are calculated to give from 10−8 to 10−6 M after dispersing the CaPO4 precipitate in the recipient dish (5 ml volume). Transfection is performed O/N and after rinsing of the precipitate the cells are further incubated for 24 hours. LacZ levels are determined from cell extracts with a chemiluminescence LacZ enzyme assay (Galactolight plus. Tropix). The relative luminescence from each extract is given in RLU/mg*1000.
Cell culture. Cells are cultivated in DMEM supplemented with serum and antibiotica according to standard conditions (typically 10% FCS and Pen/Strep as antibiotica). At the day of transfection, cells are trypsinized and seeded at around 25-30% confluency. Cells are allowed to adhere to dish for 4-6 hours prior to transfection.
DNA pre-incubation (example for conditions that give5×10 exp (−6) Molar final concentration of the CL-C4-EtBr conjugate):
5 microgram of CMV-LacZ DNA (in 10 microliter TE) are mixed with 10 nmoles of hormone derivative (10 microliters stock solution) and incubated for 10 min at room temperature (final volume: 20 ul). The DNA/cortisol-C4-ethidum mix is then supplemented with 7 micrograms sheared calf thymus carrier DNA (in 14 microliters TE) and bidistilled water to give a final volume of 125 microliters.
Transfection by CaPO4: to each transfection sample (125 microliter volume DNA+water). 125 microliters of Ca ++ mix are added, and the mix is incubated for 5-10 min at room temperature. Each sample is then supplemented with 250 microliter of Pi-mix (with simultaneous mixing by up-down pipetting) and is further incubated 10 minutes at room temperature after which the cocktail is poured on top of the medium (5 ml) of each cell culture dish (4 cm diameter). The optimal time of incubation after Pi-mix addition is pre-determined by prior evaluation (size of the precipitate) of parallel samples. The precipitate is allowed to deposit onto the cells for 15 hours (incubation of 37 degrees, 5% CO2). The cells are then rinsed twice with Tris-buffered Saline, supplemented with fresh medium and further incubated under standard conditions. To analyze LacZ reporter gene function, the cells are either fixed or harvested 24 hours after precipitate removal.
Variation of parameters: samples in which the C1-C4-EtBr conjugates (or control compounds) are used at different concentrations, are similarly treated, except that the concentration of the stock solution in ethanol is correspondingly varied.

[2] = test system: CV-1 cells reconstituted with exogenous GR; test: Transfection enhancement, CMV-LacZ reporter, CV-1 cells reconstituted with exogenous GR; type: cell-based, monkey
Procedure: Conditions: CV-1 cells are first infected with an adenovirus system allowing expression of GR in >90% of the cells (S. B. Verca, unpublished). After 24 hours the cells are; transfected with an expression vector that is constitutively expressing the reporter gene LacZ (CMV-LacZ). Transfection conditions and analysis of LacZ reporter are the same as described in Example 7 legend. Transfection is performed O/N and after rinsing of the precipitate the cells are further incubated for 24 hours. LacZ levels are determined from cell extracts with a chemiluminescence LacZ enzyme assay (Galactolight plus, Tropix). The relative luminescence from each extract is given. Each value represents an individual extract. “Induction”: relative reporter gene activity (values divided by value of assay in lane 9, true negative control for liganding), rel/RLU=(RLU:protein)×1000, net=rel/RLU−600 (600=rel/RLU value approximately corresponding to rel/RLU value of mock transfection).

GR-GFP chimera = test: Nuclear Transfer Induction assay (NTI), monourethane ligands, HeLa cells; type: cell-based; details: 1 hr
Procedure: Conditions: HeLa cells are transiently transfected by CaPO4 with an expression vector encoding a GR-GFP chimera (5 μg in transfection cocktail, 4 cm diameter dishes, DMEM with 3% FCS). After 24 hour expression, ligand is added for 1 hr and cells are fixed with formaldehyde (5 min 4° C.) and inspected by fluorescence microscopy. Fluorescent cells are counted and divided into different classes according to ‘cytoplasmic’ (C) versus ‘nuclear’ (N) localisation of fluorescence.
First column: “Conditions”: Name of compounds added (marked at top: ‘//ligand’), and their concentration (in parentheses) and assay number (01 through 21).
Values are given as percentage of cells displaying the corresponding localisatidn, within each tested condition the sum is 100%.

[3] = test system: pBR322, linearized with HindIII; test: DNA cross-linking by 365 nm UV irradiation, alkaline gel electrophoresis; type: biochemical; details: 5 nmoles, 1 microgram DNA, 20 min 365 nm UV
Procedure: DNA: CsCl purified pBR322, linearized with HindIII and resuspended in TE at a concentration of 30 nanogram/microliter hormone derivative: cortisol-C4psoralen resuspended in 100% methanol at a concentration of 10 exp(−3) Molar psoralen (Fluka) resuspended in 100% ethanol at a concentration of 10 exp(−3)Molar.
Irradiation buffer: 50 mM Tris (pH=7.5), 0.1 mM EDTA, 10 mM NaCl, 10 mM MgCl2 crosslinker apparatus: Bio-Link (BLX) equipped with 4 UV lamps (T-8.L, 365 nanometer nominal wave length) 1 microgram of DNA (in 33 microliter) is mixed at room temperature with 5 nmoles cortisol-C4-psoralen or plain psoralen (either in 5 microliter) and 33 microliter irradiation buffer and pipetted into a well (final volume: 71 microliter) The 96× wells plate is then covered by its plastic lid and put on top of an ice-bed in a plastic box inside the crosslinker apparatus. The cooled microwell plate is irradiated for 20 min with 365 nm UV light (corresponds to an approximate value of 16 joules/square cm). The cross-linked products are then precipitated 2 times with ethanol and resuspended in TE. The products are compared to non-irradiated samples by alkaline gel electrophoresis, where cross-linked DNA maintains its double-stranded molecular weight.

With `CC[n+]1c(-c2ccccc2)c2cc(NC(=O)CCNC(=O)OCC(=O)[C@@]3(O)CCC4C5CCC6=CC(=O)CCC6(C)C5C(O)CC43C)ccc2c2ccc(N)cc21` (stereo partly drawn) [CL-C4-EtBr] the improvement of expression (HUH-7 cells; lane 07 (10-6) versus lanes 8-9, HUH-7) was 7-8 fold, the RLU (HUH-7 cells; ligand 10-6, HUH-7) was 629514 and the “induction (relative reporter gene activity, divided by value of lane 9)” value (HUH-7 cells; ligand 10-6, HUH-7) was 7.84. It also gave a net (HUH-7 cells; ligand 10-6, HUH-7) of 543, a rel/RLU (HUH-7 cells; ligand 10-6, HUH-7) of 673.3 and an RLU (HUH-7 cells; ligand 10-7, HUH-7) of 198082. The “induction (relative reporter gene activity, divided by value of lane 9)” value (HUH-7 cells; ligand 10-7, HUH-7) was 1.95, the net (HUH-7 cells; ligand 10-7, HUH-7) was 135 and the rel/RLU (HUH-7 cells; ligand 10-7, HUH-7) was 265.2. For the same molecule, the “SMGD effect (transfection enhancement)” value [1] was “No SMGD effect”, the improvement of expression (3Y1 cells; lane 10 (10^-6M) versus lanes 11-13, 3Y1) was 5-7 fold and the “light units (relative luminescence, LacZ)” value (3Y1 cells; ligand 10^-6M) was 7250 RLU/mg*1000. For the same molecule, the “light units (relative luminescence, LacZ)” value (3Y1 cells; ligand 10^-7M) was 3750 RLU/mg*1000, the “light units (relative luminescence, LacZ)” value (3Y1 cells; ligand 10^-8M) was 2750 RLU/mg*1000 and the improvement of expression ([2]; lane 06 (10-6) versus lanes 7-9, CV-1 with GR) was 15-20 fold. The RLU ([2]; ligand 10-6, CV-1 with GR) was 10010, the “induction (relative reporter gene activity, divided by value of lane 9)” value ([2]; ligand 10-6, CV-1 with GR) was 17.3 and the “net = rel/RLU−600” value ([2]; ligand 10-6, CV-1 with GR) was 13992. The “rel/RLU = (RLU:protein)×1000” value ([2]; ligand 10-6, CV-1 with GR) was 14592, the RLU ([2]; ligand 10-7, CV-1 with GR) was 1988 and the “induction (relative reporter gene activity, divided by value of lane 9)” value ([2]; ligand 10-7, CV-1 with GR) was 2.75. The “net = rel/RLU−600” value ([2]; ligand 10-7, CV-1 with GR) was 2232, the “rel/RLU = (RLU:protein)×1000” value ([2]; ligand 10-7, CV-1 with GR) was 2831.9 and the RLU ([2]; ligand 10-8, CV-1 with GR) was 1211. The “induction (relative reporter gene activity, divided by value of lane 9)” value ([2]; ligand 10-8, CV-1 with GR) was 1.33, the “net = rel/RLU−600” value ([2]; ligand 10-8, CV-1 with GR) was 1075 and the “rel/RLU = (RLU:protein)×1000” value ([2]; ligand 10-8, CV-1 with GR) was 1675. The “C < N, percentage of cells” value (GR-GFP chimera; ligand 1.10-6M) was 45%, the “C << N, percentage of cells” value (GR-GFP chimera; ligand 1.10-6M) was 0% and the “C = N, percentage of cells” value (GR-GFP chimera; ligand 1.10-6M) was 55%. For the same molecule, the “C > N, percentage of cells” value (GR-GFP chimera; ligand 1.10-6M) was 0%, the “C >> N, percentage of cells” value (GR-GFP chimera; ligand 1.10-6M) was 0% and the “C < N, percentage of cells” value (GR-GFP chimera; ligand 1.10-7M) was 9%. The “C << N, percentage of cells” value (GR-GFP chimera; ligand 1.10-7M) was 0%, the “C = N, percentage of cells” value (GR-GFP chimera; ligand 1.10-7M) was 74% and the “C > N, percentage of cells” value (GR-GFP chimera; ligand 1.10-7M) was 17%. For the same molecule, the “C >> N, percentage of cells” value (GR-GFP chimera; ligand 1.10-7M) was 0%.
With `Cc1oc2c(C)c3oc(=O)cc(C)c3cc2c1CNC(=O)CCNC(=O)OCC(=O)[C@@]1(O)CCC2C3CCC4=CC(=O)CCC4(C)C3C(O)CC21C` (stereo partly drawn) [CL-C4-Pso] the DNA cross-linking efficiency [3] was “as efficient as cross-linking with free psoralen”, the “C < N, percentage of cells” value (GR-GFP chimera; ligand 1.10-6M) was 63% and the “C << N, percentage of cells” value (GR-GFP chimera; ligand 1.10-6M) was 8%. For the same molecule, the “C = N, percentage of cells” value (GR-GFP chimera; ligand 1.10-6M) was 29%, the “C > N, percentage of cells” value (GR-GFP chimera; ligand 1.10-6M) was 0% and the “C >> N, percentage of cells” value (GR-GFP chimera; ligand 1.10-6M) was 0%. The “C < N, percentage of cells” value (GR-GFP chimera; ligand 1.10-7M) was 5%, the “C << N, percentage of cells” value (GR-GFP chimera; ligand 1.10-7M) was 0% and the “C = N, percentage of cells” value (GR-GFP chimera; ligand 1.10-7M) was 75%. For the same molecule, the “C > N, percentage of cells” value (GR-GFP chimera; ligand 1.10-7M) was 20% and the “C >> N, percentage of cells” value (GR-GFP chimera; ligand 1.10-7M) was 0%.
